Measured values reported in patent US5087439A, “Paramagnetic metal-diethylenetriamine-pentaacetic acid partial amide complexes for magnetic resonance imaging” (Salutar, Inc., priority 1989, dated 1992).

Tests used:
[1] = Relaxivity (T1, T2) of the compound in human plasma at 10 MHz (37° C.); format: physicochemical; conditions: for T1 Plasma / T2 Plasma: 10 MHz, 37° C.
Procedure: (§1) Relaxivity of the compound in water and in human plasma at 10 MHz (37° C.) (for practical purposes, the lower the T1 in a given part of the body, the brighter the image in MR imaging):
(§2) *T1 and T2 are relaxtion times in msec.

[2] = Relaxivity (T1, T2) of the compound in water at 10 MHz (37° C.); format: physicochemical
Procedure: as §1, §2

[3] = Organ distribution of the compound in male rabbits (organ T1 measured in vitro at 5 MHz); conditions: 100 μmol/kg; for T1, Skeletal Muscle: male rabbits, 15 min post injection, 5 MHz
Procedure: The test compounds were injected into male rabbits at 100 μmol/kg. The rabbits were sacrificed at 15 minutes post injection and the relaxivity of internal organs was measured in vitro at 5 MHz.
The test compounds were injected into male rabbits at 100 μ mol/kg. The rabbits were sacrificed at 15 minutes post injection and the relaxivity of internal organs was measured in vitro at 5 MHz.

[4] = vs prior art compound, same dosage, from blood T1 at 20 minutes
Procedure: Pharmacokinetics of the compound in a pure breed beagle dog
A male dog was injected with the test compounds at 100 μ mol/kg. Blood was drawn at the indicated times. The plasma was separated and the relaxivity measured.

C[NH2+]C[C@H](O)[C@@H](O)[C@H](O)[C@H](O)CO.C[NH2+]C[C@H](O)[C@@H](O)[C@H](O)[C@H](O)CO.O=C([O-])CN(CCN(CC(=O)[O-])CC(=O)[O-])CCN(CC(=O)[O-])CC(=O)[O-].[Gd+3] [Gd DTPA-di(N-methylglucamine), reference compound]
T1 Plasma ([1]; 1.56 × 10^-3 M): 134 ms
T2 Plasma ([1]; 1.56 × 10^-3 M): 116 ms
T1 Plasma ([1]; 1.95 × 10^-4 M): 636 ms
T1 Plasma ([1]; 3.13 × 10^-3 M): 69 ms
T2 Plasma ([1]; 3.13 × 10^-3 M): 61 ms
T1 Plasma ([1]; 3.91 × 10^-4 M): 405 ms
T1 Plasma ([1]; 6.25 × 10^-3 M): 39 ms
T2 Plasma ([1]; 6.25 × 10^-3 M): 31 ms
T1 Plasma ([1]; 7.81 × 10^-4 M): 240 ms
T1 Plasma ([1]; 9.77 × 10^-5 M): 877 ms
T1 Water ([2]; 1.56 × 10^-3 M): 163 ms
T2 Water ([2]; 1.56 × 10^-3 M): 155 ms
T1 Water ([2]; 1.95 × 10^-4 M): 1015 ms
T1 Water ([2]; 3.13 × 10^-3 M): 83 ms
T2 Water ([2]; 3.13 × 10^-3 M): 76 ms
T1 Water ([2]; 3.91 × 10^-4 M): 582 ms
T1 Water ([2]; 6.25 × 10^-3 M): 40 ms
T2 Water ([2]; 6.25 × 10^-3 M): 35 ms
T1 Water ([2]; 7.81 × 10^-4 M): 309 ms
T1, Skeletal Muscle [3]: 405 ms
change in spin lattice (T1) relaxation in the heart and liver ([3]; rabbits, 15 min, heart and liver): fails to produce any change

CCCCCCNC(=O)CN(CCN(CCN(CC(=O)[O-])CC(=O)NCCCCCC)CC(=O)[O-])CC(=O)[O-].[Gd+3] [Gd DTPA-bishexylamide]
T1 Plasma ([1]; 1.17 × 10^-3 M): 83 ms
T2 Plasma ([1]; 1.17 × 10^-3 M): 71 ms
T1 Plasma ([1]; 1.46 × 10^-4 M): 403 ms
T1 Plasma ([1]; 1.82 × 10^-5 M): 1087 ms
T1 Plasma ([1]; 2.34 × 10^-3 M): 48 ms
T2 Plasma ([1]; 2.34 × 10^-3 M): 39 ms
T1 Plasma ([1]; 2.92 × 10^-4 M): 249 ms
T1 Plasma ([1]; 3.68 × 10^-5 M): 881 ms
T1 Plasma ([1]; 4.67 × 10^-3 M): 26 ms
T2 Plasma ([1]; 4.67 × 10^-3 M): 21 ms
T1 Plasma ([1]; 5.84 × 10^-4 M): 145 ms
T2 Plasma ([1]; 5.84 × 10^-4 M): 123 ms
T1 Plasma ([1]; 7.30 × 10^-5 M): 622 ms
T1 Plasma ([1]; 9.12 × 10^-6 M): 1220 ms
T1 Plasma ([1]; 9.34 × 10^-3 M): 15 ms
T2 Plasma ([1]; 9.34 × 10^-3 M): 10 ms
proton relaxation in plasma compared with the prior art compound ([1]; vs Gd DTPA-di(N-methylglucamine), human plasma): almost three times better
T1 Water ([2]; 1.17 × 10^-3 M): 159 ms
T2 Water ([2]; 1.17 × 10^-3 M): 147 ms
T1 Water ([2]; 1.46 × 10^-4 M): 947 ms
T1 Water ([2]; 2.34 × 10^-3 M): 81 ms
T2 Water ([2]; 2.34 × 10^-3 M): 76 ms
T1 Water ([2]; 2.92 × 10^-4 M): 561 ms
T1 Water ([2]; 4.67 × 10^-3 M): 42 ms
T2 Water ([2]; 4.67 × 10^-3 M): 36 ms
T1 Water ([2]; 5.84 × 10^-4 M): 309 ms
T1 Water ([2]; 7.30 × 10^-5 M): 1374 ms
T1 Water ([2]; 9.34 × 10^-3 M): 23 ms
T2 Water ([2]; 9.34 × 10^-3 M): 18 ms
improvement in image signal intensity [4]: two-fold
T1, Skeletal Muscle [3]: 397 ms
